Results: US20220293224A1, “MODULAR SYNTHON-BASED SCREENING APPROACH FOR USE IN DRUG DISCOVERY FOR DISEASES” (priority 2021, published 2022)
pKi: −log10 of the molar value. Where two headings read alike, the source gives them in different places.

Assays:
human CB1 = target: T1, human CB1 (Homo sapiens, UniProt P21554); format: cell-based; details: read-out: CB1 Antagonist potency Ki
T1 construct: expressed in transfected cells; host or cells: HTLA cells
Protocol: (§1) The Tango arrestin recruitment assays were performed as previously described. Briefly, HTLA cells were transiently transfected with human CB1 or CB2 Tango DNA construct overnight in DMEM supplemented with 10% FBS, 100 μg/ml streptomycin and 100 U/ml penicillin. The transfected cells were then plated into Poly-L-Lysine coated 384-well white clear bottom cell culture plates in DMEM containing 1% dialyzed FBS at a density of 10,000-15,000 cells/well. After 6 hours incubation, the plates were added with drug solutions prepared in DMEM containing 1% dialyzed FBS for overnight incubation. […] On the day of assay, medium and drug solutions were removed and 20 μL/well of BrightGlo reagent (Promega) was added. The plates were further incubated for 20 min at room temperature and counted using a Wallac TriLux Microbeta counter (PerkinElmer). Results were analyzed using GraphPad Prism 8.

rat CB1 receptor = target: T2, rat CB1 receptor (Rattus norvegicus, UniProt P20272); experiment: Radioligand binding assay with [3H]CP-55,940, rat brain membranes
T2 construct: membrane preparations from rat brain; from tissue; host or cells: rat brain membranes
Protocol: (§2) The affinities (IQ of the new compounds for rat CB1 receptor as well as for human CB2 receptors were obtained by using membrane preparations from rat brain or HEK293 cells expressing hCB2 receptors, respectively, and [^3H]CP-55,940 as the radioligand, as previously described. Results from the competition assays were analyzed using nonlinear regression to determine the IC50 values for the ligand; Ki values were calculated from the I50 (Prism by GraphPad Software, Inc.). Each experiment was performed in triplicate and Ki values determined from three independent experiments and are expressed as the mean of the three values.

human CB2 [1] = target: T3, human CB2 (Homo sapiens, UniProt P34972); experiment: Tango β-arrestin recruitment antagonist assay at CB2; format: cell-based; design: expressed in transfected cells; host or cells: HTLA cells; details: Tango antagonist assay with 100 nM CP55940; n=4 independent assays, 16 dose-response points; read-out: CB2 Antagonist potency Ki
Protocol: as §1

human CB2 [2] = target: T3, human CB2; experiment: Radioligand binding assay with [3H]CP-55,940, HEK293 cells expressing hCB2; design: expressed in transfected cells; host or cells: HEK293 cells
Protocol: as §2

[3] = system: panel of more than 300 receptors; experiment: PRESTO-Tango GPCRome off-target panel; format: cell-based; details: for activities at off-targets in follow-up dose-response curves: follow-up dose-response of potential actives
Protocol: Screening of the compounds in the PRESTO-Tango GPCRome was performed as previously described with modifications. First, HTLA cells were plated in poly-L-lysine coated 384-well white plates in DMEM containing 1% dialyzed FBS for 6 hours. Next, the cells were transfected with 20 ng/well PRESTO-Tango receptor DNAs overnight. Then, the cells were added with 10 μM drugs without changing the medium and incubated for another 24 hours. The remaining steps of the PRESTO-Tango protocol were followed. The results were plotted as fold of basal against individual receptors in the GraphPad 8.0 software. For the receptors that had >3-fold of basal signaling activity, assays were repeated as a full dose-response assay and the results were plotted as a percentage of reference compounds.

[4] = rat CB1, [3H]CP-55,940, estimates from 3-point assays, read-out: CB1 affinity Ki (asterisk: estimate from 3-point assays)
[5] = human CB2, [3H]CP-55,940, estimates from 3-point assays, read-out: CB2 affinity Ki (asterisk: estimate from 3-point assays)
[6] = rat CB1, [3H]CP-55,940 radioligand, read-out: CB1 affinity Ki
[7] = human CB2, [3H]CP-55,940 radioligand, read-out: CB2 affinity Ki

T1 sequence (P21554 whole entry): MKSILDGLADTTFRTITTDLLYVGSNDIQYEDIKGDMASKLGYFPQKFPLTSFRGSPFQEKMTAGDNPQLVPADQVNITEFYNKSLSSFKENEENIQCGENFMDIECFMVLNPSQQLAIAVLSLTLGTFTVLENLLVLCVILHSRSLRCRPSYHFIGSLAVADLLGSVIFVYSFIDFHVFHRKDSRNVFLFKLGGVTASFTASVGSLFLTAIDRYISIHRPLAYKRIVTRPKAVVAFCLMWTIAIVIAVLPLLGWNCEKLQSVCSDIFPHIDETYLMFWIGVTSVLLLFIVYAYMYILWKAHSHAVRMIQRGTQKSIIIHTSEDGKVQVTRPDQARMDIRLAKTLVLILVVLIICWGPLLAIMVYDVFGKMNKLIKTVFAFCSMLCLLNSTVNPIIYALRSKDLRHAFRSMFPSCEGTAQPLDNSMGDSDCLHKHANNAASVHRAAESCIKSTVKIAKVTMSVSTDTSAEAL
T3 sequence (P34972 whole entry): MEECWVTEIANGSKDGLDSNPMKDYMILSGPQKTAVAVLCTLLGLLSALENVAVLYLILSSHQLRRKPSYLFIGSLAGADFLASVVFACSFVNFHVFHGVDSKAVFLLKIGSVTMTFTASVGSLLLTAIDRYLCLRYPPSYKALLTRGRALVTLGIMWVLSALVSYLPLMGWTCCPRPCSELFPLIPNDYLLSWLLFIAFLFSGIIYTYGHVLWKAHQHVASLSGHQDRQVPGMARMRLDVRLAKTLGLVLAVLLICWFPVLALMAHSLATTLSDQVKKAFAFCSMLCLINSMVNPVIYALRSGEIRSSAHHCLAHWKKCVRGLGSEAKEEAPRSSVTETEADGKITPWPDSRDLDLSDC
T2 sequence (P20272 whole entry): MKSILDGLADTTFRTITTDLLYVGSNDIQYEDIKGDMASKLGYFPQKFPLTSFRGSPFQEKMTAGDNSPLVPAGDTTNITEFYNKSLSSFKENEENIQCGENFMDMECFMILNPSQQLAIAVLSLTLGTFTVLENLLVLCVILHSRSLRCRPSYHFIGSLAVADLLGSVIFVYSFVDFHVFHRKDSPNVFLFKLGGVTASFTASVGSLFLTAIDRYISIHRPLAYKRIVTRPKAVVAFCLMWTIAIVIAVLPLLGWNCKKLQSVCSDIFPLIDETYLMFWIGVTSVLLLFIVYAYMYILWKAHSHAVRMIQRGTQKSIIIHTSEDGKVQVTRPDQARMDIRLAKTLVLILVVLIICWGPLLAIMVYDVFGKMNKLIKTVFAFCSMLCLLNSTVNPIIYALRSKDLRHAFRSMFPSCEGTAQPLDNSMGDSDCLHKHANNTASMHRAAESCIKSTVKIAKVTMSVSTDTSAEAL

Compound: O=C1CCc2cc(OCCNC(=O)N(Cc3ccccc3)Cc3ccc(F)cc3)ccc2N1 [BRI-13619]
- pKi (human CB1): 7.30
- pKi (rat CB1 receptor; [4]): 4.35
- pKi (human CB2 [1]): 6.96

Compound: Cc1ccc(NC(=O)Nc2ccn(C3CCCCCC3)n2)cc1S(=O)(=O)N1CCCCCC1 [BRI-13544]
- pKi (human CB2 [1]): 5.11
- pKi (human CB2 [2]; [5]): 5.60

Compound: O=C(Nc1ccn(C2CCCCC2)n1)C(=O)NC(CCc1ccccc1)c1ccccc1 (stereo not drawn) [BRI-13610]
- pKi (human CB1): 6.12
- pKi (rat CB1 receptor; [6]): 6.21
- activities at off-targets in follow-up dose-response curves [3]: only negligible activities
- pKi (human CB2 [1]): 5.38
- pKi (human CB2 [2]; [7]): 6.55

Compound: Cc1ccc(NC(=O)Nc2ccn(C3CCOCC3)n2)cc1S(=O)(=O)N1CCCCCC1 [BRI-13505]
- pKi (human CB1): 6.55
- pKi (rat CB1 receptor; [6]): 4.79
- pKi (human CB2 [1]): 6.27
- pKi (human CB2 [2]; [5]): 6.00

Compound: O=C(C1CC1)N1CCc2ccc(S(=O)(=O)NC(CCc3ccccc3)c3ccccn3)cc21 (stereo not drawn) [BRI-13663]
- pKi (rat CB1 receptor; [4]): 4.90
- pKi (human CB2 [1]): 4.84
- pKi (human CB2 [2]; [7]): 4.84

Compound: Cc1cc(Cl)cn2cc(CNC(=O)C(=O)NC(COc3ccccc3)c3ccccc3)nc12 (stereo not drawn) [BRI-13520]
- pKi (human CB1): 5.97
- pKi (rat CB1 receptor; [6]): 4.94
- pKi (human CB2 [1]): 5.28
- pKi (human CB2 [2]; [7]): 4.89

Compound: O=C1Cc2cc(NC(=O)C(=O)NC(CCc3ccccc3)c3ccccc3)ccc2N1 (stereo not drawn) [BRI-13515]
- pKi (human CB1): 6.03
- pKi (rat CB1 receptor; [6]): 5.21
- pKi (human CB2 [1]): 5.42
- pKi (human CB2 [2]; [7]): 5.55

Compound: CC1(C)NC(=O)N(CCCNC(=O)NCc2oc3ccc(Cl)cc3c2-c2ccccc2)C1=O [BRI-13559]
- pKi (human CB1): 6.01
- pKi (human CB2 [1]): 5.37
- pKi (human CB2 [2]; [7]): 4.91

Compound: CCCC(NS(=O)(=O)C1CC2(CC2)C1)C(=O)Nc1cccc(N2CCCC2)c1 (stereo not drawn) [BRI-13681]
- pKi (human CB1): 6.38
- pKi (rat CB1 receptor; [6]): 5.09
- pKi (human CB2 [1]): 5.73
- pKi (human CB2 [2]; [7]): 5.38

Compound: COc1ccc(-c2nccc(N3CCCC(Cc4ccc(N)nc4)C3)n2)cc1 (stereo not drawn) [BRI-13565]
- pKi (rat CB1 receptor; [4]): 5.35
- pKi (human CB2 [1]): 5.42
- pKi (human CB2 [2]; [7]): 4.87

Compound: CS(C)(=O)=NS(=O)(=O)c1cccc(C(=O)OCc2cccc3ccsc23)c1 [BRI-13650]
- pKi (human CB1): 5.49
- pKi (rat CB1 receptor; [4]): 4.35
- pKi (human CB2 [1]): 4.91

Compound: O=C(NCC1(Cc2ccccc2)CC=CCC1)C(=O)Nc1c(F)ccc(Br)c1F (stereo not drawn) [BRI-13566]
- pKi (human CB1): 5.69
- pKi (rat CB1 receptor; [4]): 5.16
- pKi (human CB2 [1]): 5.39
- pKi (human CB2 [2]; [7]): 5.92

Compound: O=S(=O)(NC1CC1)c1ccc(S(=O)(=O)NC(CCc2ccccc2)c2ccccn2)cc1 (stereo not drawn) [BRI-13661]
- pKi (human CB1): 6.26
- pKi (rat CB1 receptor; [4]): 4.72
- pKi (human CB2 [1]): 5.36
- pKi (human CB2 [2]; [7]): 5.40

Compound: Cc1ccc(NC(=O)N2CCC(O)(c3ccccc3F)C2)cc1S(=O)(=O)N1CCCCCC1 (stereo not drawn) [BRI-13599]
- pKi (human CB1): 5.63
- pKi (rat CB1 receptor; [4]): 4.58
- pKi (human CB2 [1]): 5.61
- pKi (human CB2 [2]; [7]): 4.98

Compound: O=C(c1ccc(F)cc1)c1cc(Cl)ccc1NS(=O)(=O)c1cnn(C2CCCCC2)c1 [BRI-13665]
- pKi (human CB1): 6.41
- pKi (rat CB1 receptor; [4]): < 5.15
- pKi (human CB2 [1]): 6.09
- pKi (human CB2 [2]; [7]): 5.17

Compound: C=CCC1(S(=O)(=O)NC(=O)c2ccc(N3CCCCC3)c(S(=O)(=O)N3CCCCCC3)c2)CC1 [BRI-13523]
- pKi (human CB1): 5.74
- pKi (rat CB1 receptor; [6]): 4.92
- activities at off-targets in follow-up dose-response curves [3]: only negligible activities
- selectivity against the GPCRome-Tango panel ([3]; panel of more than 300 receptors): high selectivity
- pKi (human CB2 [1]): 5.80
- pKi (human CB2 [2]; [7]): 6.07

Compound: Cn1ccc(-n2cc(-c3csc(C(NC(=O)c4ccccc4)c4ccccc4)n3)nn2)n1 (stereo not drawn) [BRI-13580]
- pKi (human CB1): 5.24
- pKi (human CB2 [1]): 5.16
- pKi (human CB2 [2]; [5]): 5.82

Compound: Cc1ccc(CN(Cc2ccco2)S(=O)(=O)c2cnn(-c3ccccc3F)c2)s1 [BRI-13668]
- pKi (human CB2 [1]): 5.32
- pKi (human CB2 [2]; [7]): 5.28

Compound: N#Cc1ccc(C(=O)NCCN(Cc2ccccc2)C(=O)c2cc(C(F)(F)F)cs2)s1 [BRI-13633]
- pKi (human CB1): 6.64
- pKi (rat CB1 receptor; [4]): 5.00
- pKi (human CB2 [1]): 5.82

Compound: O=S(=O)(C1=Cc2cc(Cl)ccc2OC1)N(CCc1ccccn1)Cc1cccnc1 [BRI-13684]
- pKi (human CB1): 5.94
- pKi (rat CB1 receptor; [6]): 4.59
- pKi (human CB2 [1]): 5.14
- pKi (human CB2 [2]; [7]): 5.28
